Measured values published in patent US12605753B2, “Enhanced microbial production of biosurfactants and other products, and uses thereof” (LOCUS SOLUTIONS IPCO, LLC, priority 2015, dated 2026).

Test system: Bacillus subtilis B1, B2, and B3 strains
Test: PCR with primers for unique signature sequences
Conditions: amplicon generated by the forward/reverse primer pair (LSBS n-F / n-R) specific for Bacillus subtilis B1, B2, B3 strains
Text: Table 7 below depicts thirteen (13) pairs of primers specifically designed for the Bacillus subtilis B1, B2, and B3 strains. All 13 primers generate unique PCR amplicons for identifying the Bacillus subtilis strains of the present invention. The subsequent PCR products are unique and are not found performing a search (i.e., BLAST search) in a database such as the GenBank database.

| Substance | PCR Product Size (bp) |
| --- | --- |
| LSBS 11-F (DNA ATGCGGCTAGACATGGATATG; listed as DNA, chemistry not given here) | 687 |
| LSBS 7-F (DNA CCTCTGCCCAAGACATATCAA; listed as DNA, chemistry not given here) | 913 |
| LSBS 5-F (DNA CCATTAGGGTCAACATGGTCTAA; listed as DNA, chemistry not given here) | 273 |
| LSBS 4-F (DNA CATGCGGAACTCCAATTTCTTC; listed as DNA, chemistry not given here) | 263 |
| LSBS 9-F (DNA GCCATCAGGCTGTTTGTAGA; listed as DNA, chemistry not given here) | 679 |
| LSBS 3-F (DNA CGGAGTTTGTTAGCGAAGTTATTG; listed as DNA, chemistry not given here) | 543 |
| LSBS 8-F (DNA GCTGTAGACGACTGGGTACTA; listed as DNA, chemistry not given here) | 750 |
| LSBS 2-F (DNA TCAATTCCTCTGCACCACTTAT; listed as DNA, chemistry not given here) | 906 |
| LSBS 6-F (DNA CACCGAACTCTGCTGAGAAA; listed as DNA, chemistry not given here) | 523 |
| LSBS 12-F (DNA TGTCCCTCTTTAGGTGCTATTG; listed as DNA, chemistry not given here) | 954 |
| LSBS 1-F (DNA GGACACAGATCATTGGGAGTT; listed as DNA, chemistry not given here) | 769 |
| LSBS 13-F (DNA CCCTCTAGCTCTTTCTTCTTCAC; listed as DNA, chemistry not given here) | 496 |
| LSBS 10-F (DNA CAGATGAAGTTGGTGGTGTTTC; listed as DNA, chemistry not given here) | 743 |
